This is an account of results in ChEMBL document CHEMBL3091392, “Chromenylchalcones with inhibitory effects on monoamine oxidase B” (Bioorg Med Chem, 2013).

The target of assay [1] is T1, Amine oxidase [flavin-containing] B (Homo sapiens, UniProt P27338).
T1 sequence (P27338 whole entry): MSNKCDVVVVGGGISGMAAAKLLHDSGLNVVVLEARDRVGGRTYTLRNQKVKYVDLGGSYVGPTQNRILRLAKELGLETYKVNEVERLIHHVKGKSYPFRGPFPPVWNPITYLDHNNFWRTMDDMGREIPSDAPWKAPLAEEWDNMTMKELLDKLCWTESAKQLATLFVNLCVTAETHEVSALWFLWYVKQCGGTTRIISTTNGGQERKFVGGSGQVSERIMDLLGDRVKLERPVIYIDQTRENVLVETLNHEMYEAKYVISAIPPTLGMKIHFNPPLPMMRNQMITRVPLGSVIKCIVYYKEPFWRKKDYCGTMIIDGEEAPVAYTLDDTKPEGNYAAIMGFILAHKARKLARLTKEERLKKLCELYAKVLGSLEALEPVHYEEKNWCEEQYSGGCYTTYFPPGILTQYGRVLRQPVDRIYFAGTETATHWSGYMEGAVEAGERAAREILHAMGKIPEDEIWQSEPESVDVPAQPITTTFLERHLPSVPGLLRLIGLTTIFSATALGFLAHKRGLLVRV
The experiment in a line: Inhibition of MAO-B (unknown origin) using p-tyramine substrate by HPLC method.

The target of assay [2] is T1, Amine oxidase [flavin-containing] B. The experiment in a line: Inhibition of MAO-B (unknown origin).
For assay [3] the target is unchanged. Put plainly: Inhibition of human recombinant MAO-B expressed in insect cells at 10 uM by Amplex Red assay. Conditions: read-out: INH.
The target is the same in assay [4]. Put plainly: Inhibition of human recombinant MAO-B expressed in insect cells by Amplex Red assay. In kind it is cell-based.

As for `COc1cccc(C(=O)/C=C/C2=Cc3cc(Br)ccc3OC2)c1`, in assay [1], the IC50 (commonly the point on the concentration scale where inhibition reaches its midpoint) was determined as 35.9 µM.

For `COc1cc(OC)cc(C(=O)/C=C/C2=Cc3cc(Br)ccc3OC2)c1`, half-maximal inhibition in assay [1] (IC50) was put at 16.7 µM.

In assay [1], `COc1ccccc1C(=O)/C=C/C1=Cc2cc(Br)ccc2OC1` displayed an IC50 of 42.8 µM. `O=c1c(Cc2ccc(Cl)cc2)coc2cc(Cl)cc(Cl)c12` gave a half-inhibitory concentration (IC50) in assay [2] of 0.437 µM. As for `COc1ccc2c(c1)C=C(/C=C/C(=O)c1ccccc1OC)CO2`, the inhibition at 10 µM in assay [3] is 91.6%. Further, the IC50 in assay [4] amounted to 0.32 µM; in assay [1], 13.7 µM. Regarding `COc1cc(/C=C/C(=O)C2=Cc3cc(OC)ccc3OC2)cc(OC)c1`, the IC50 in assay [1] stood at 18.3 µM.
